Data from patent US4327097A, “Novel penicillins” (Toyama Chemical Co., Ltd., priority 1974, dated 1982).

Legend:
[1] = tested on: β-lactamase, Pseudomonas aeruginosa GN 238; assay: Resistant activity against β-lactamase, iodometric assay; assay type: biochemical; conditions: β-lactamase from Pseudomonas aeruginosa GN 238; Potassium Penicillin G = 100
Method: (3) Resistant activity against β-lactamase, Pseudomonas aerugionsa GN 238:
The resistant activity of each compound against β-lactamase was measured in the manner described below.
β-Lactamase was prepared from Pseudomonas aeruginosa GN 238. This microorganism was cultured in 100 ml of a medium containing 2 g of yeast extract, 10 g of polypeptone, 2 g of glucose, 7 g of disodium hydrogen phosphate, 2 g of potassium dihydrogen phosphate, 1.2 g of ammonium sulfate and 0.4 g of magnesium sulfate, per liter, in a 500-ml Erlenmeyer flask for 6 hrs. at 37° C. with shaking. The resulting cells were collected by centrifugation (5,000 r.p.m.×10 min.), washed three times with 0.1 M phosphate buffer (pH 7.0). Subsequently, the cells were subjected to sonication (20 KHz, 20 min.) and then centrifuged at 15,000 r.p.m. for 60 min. By using the supernatant of enzyme fluid, the resistance of each compound against β-lactamase was determined by the iodometric assay method. Each numeral shown in Table 7 is a relative activity value calculated by assuming as 100 the activity of the control Potassium Penicillin G.

Staphylococcus aureus = assay: MIC against clinical isolates; assay type: cell-based; conditions: Table 5-1, clinical isolate; unit assumed
Proteus mirabilis = assay: MIC against clinical isolates; assay type: cell-based; conditions: Table 5-6, clinical isolate; unit assumed
Proteus morganii = assay: MIC against clinical isolates; assay type: cell-based; conditions: Table 5-6, clinical isolate; unit assumed
Klebsiella pneumoniae [2] = assay: MIC against clinical isolates; assay type: cell-based; conditions: Table 5-4, clinical isolate; unit assumed
Pseudomonas aeruginosa = assay: MIC against clinical isolates; assay type: cell-based; conditions: unit assumed; for MIC Pseudomonas neruginosa S-1 / MIC Pseudomonas neruginosa S-2 / MIC Pseudomonas neruginosa S-3 / MIC Pseudomonas neruginosa S-4: Table 5-4, clinical isolate
Salmonella typhi-murium = assay: MIC against clinical isolates; assay type: cell-based; conditions: Table 5-5, clinical isolate; unit assumed
Escherichia coli = assay: MIC against clinical isolates; assay type: cell-based; conditions: Table 5-2, clinical isolate; unit assumed
Proteus vulgaris = assay: MIC against clinical isolates; assay type: cell-based; conditions: Table 5-6, clinical isolate; unit assumed
Shigella sonnei = assay: MIC against clinical isolates; assay type: cell-based; conditions: Table 5-5, clinical isolate; unit assumed
Method: (§1) The minimum inhibitory concentration (MIC) was determined by the plate method disclosed in "Chemotherapy" (Japan), Vol. 16, (1968), pages 98-99. The culture medium used was a Heart infusion agar (pH 7.4). The number of the cells per plate used in the inoculum was 10^4 (10^6 cells/ml).
(§2) MIC was determined in the same manner as in the preceding paragraph (1).

Shigella flexneri = assay: MIC against clinical isolates; assay type: cell-based; conditions: Table 5-5, clinical isolate; unit assumed
Method: as §1, §2

Klebsiella pneumoniae [3] = assay: MIC, plate method, standard strains; assay type: cell-based; conditions: Table 3, standard strain; unit assumed
How it was run: (§3)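 Test compound was incorporated into Heart infusion agar at pH 7.4, plates were inoculated with 10^4 cells each (suspension at 10^6 cells/ml), and the minimum inhibitory concentration was recorded.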

Proteus vulgaris 3027 = assay: MIC, plate method, standard strains; assay type: cell-based; conditions: Table 3, standard strain; unit assumed
How it was run: as §3

Escherichia coli NIHJ = assay: MIC, plate method, standard strains; assay type: cell-based; conditions: Table 3, standard strain; unit assumed
How it was run: as §3

[4] = tested on: Staphylococcus aureus 209p; assay: MIC, plate method, standard strains; assay type: cell-based; conditions: Table 3, standard strain, Heart infusion agar pH 7.4; unit assumed
How it was run: as §3

[5] = tested on: Pseudomonas aeruginosa I.F.O.; assay: MIC, plate method, standard strains; assay type: cell-based; conditions: Table 3, standard strain; unit assumed
How it was run: as §3

Proteus rettgeri = assay: MIC against clinical isolates; assay type: cell-based; conditions: Table 5-6, clinical isolate; unit assumed

CCCCCCN1CCN(C(=O)NC(C(=O)NC2C(=O)N3C2SC(C)(C)C3C(=O)O)c2ccccc2)C(=O)C1=O (single isomer, unassigned) [Compound 46]
12.5 µg/mL: MIC Klebsiella pneumoniae GN 4081 (Klebsiella pneumoniae [2]) | MIC Klebsiella pneumoniae GN 4117 (Klebsiella pneumoniae [2]) | MIC Pseudomonas aeruginosa GN (Pseudomonas aeruginosa; Table 5-3, clinical isolate, strain number not given) | MIC Pseudomonas aeruginosa GN 221 (Pseudomonas aeruginosa; Table 5-3, clinical isolate) | MIC Pseudomonas aeruginosa GN 1091 (Pseudomonas aeruginosa; Table 5-3, clinical isolate) | MIC Pseudomonas aeruginosa GN 2565 (Pseudomonas aeruginosa; Table 5-3, clinical isolate) | MIC Shigella sonnei JS 11232 (Shigella sonnei)
6.25 µg/mL: MIC Staphylococcus aureus F-1 (Staphylococcus aureus) | MIC Staphylococcus aureus F-4 (Staphylococcus aureus) | MIC Staphylococcus aureus MS 8713 (Staphylococcus aureus) | MIC Pseudomonas aeruginosa GN 82 (Pseudomonas aeruginosa; Table 5-3, clinical isolate) | MIC Pseudomonas aeruginosa GN 163 (Pseudomonas aeruginosa; Table 5-3, clinical isolate) | MIC Pseudomonas aeruginosa GN 2987 (Pseudomonas aeruginosa; Table 5-3, clinical isolate) | MIC Escherichia coli GN 3465 (Escherichia coli) | MIC Shigella flexneri JS 11215 (Shigella flexneri) | MIC Pseudomonas aeruginosa I.F.C [5]
0.4 µg/mL: MIC Klebsiella pneumoniae (Klebsiella pneumoniae [3]) | MIC Proteus vulgaris 3027 (Proteus vulgaris 3027)
1.57 µg/mL: MIC Staphylococcus aureus F-2 (Staphylococcus aureus) | MIC Staphylococcus aureus MS 8588 (Staphylococcus aureus) | MIC Staphylococcus aureus MS 8684 (Staphylococcus aureus) | MIC Klebsiella pneumoniae GN 3850 (Klebsiella pneumoniae [2])
12%: Relative activity (%), resistant activity against β-lactamase [1]
> 200 µg/mL: MIC Staphylococcus aureus F-5 (Staphylococcus aureus) | MIC Escherichia coli GN 3611 (Escherichia coli)
0.2 µg/mL: MIC Staphylococcus aureus 209p [4]
0.79 µg/mL: MIC Shigella sonnei JS 11755 (Shigella sonnei) | MIC Shigella flexneri JS 11839 (Shigella flexneri)
< 0.4 µg/mL: MIC Staphylococcus aureus MS 8619 (Staphylococcus aureus) | MIC Proteus mirabilis (Proteus mirabilis) | MIC Proteus morganii (Proteus morganii) | MIC Salmonella typhi-murium SL 858 (Salmonella typhi-murium) | MIC Escherichia coli GN 3435 (Escherichia coli) | MIC Escherichia coli K-4 (Escherichia coli) | MIC Proteus vulgaris (Proteus vulgaris)
< 0.1 µg/mL: MIC Esche--richin coil NIHJ (Escherichia coli NIHJ)
50 µg/mL: MIC Pseudomonas aeruginosa GN 1035 (Pseudomonas aeruginosa; Table 5-3, clinical isolate) | MIC Pseudomonas neruginosa S-1 (Pseudomonas aeruginosa) | MIC Pseudomonas neruginosa S-2 (Pseudomonas aeruginosa) | MIC Pseudomonas neruginosa S-3 (Pseudomonas aeruginosa) | MIC Pseudomonas neruginosa S-4 (Pseudomonas aeruginosa) | MIC Salmonella typhi-murium SL 2136 (Salmonella typhi-murium) | MIC Escherichia coli K-3 (Escherichia coli)

CCCCCCCCN1CCN(C(=O)NC(C(=O)NC2C(=O)N3C2SC(C)(C)C3C(=O)O)c2ccccc2)C(=O)C1=O (single isomer, unassigned) [Compound No. 47]
< 0.4 µg/mL: MIC Staphylococcus aureus MS 8619 (Staphylococcus aureus) | MIC Proteus mirabilis (Proteus mirabilis) | MIC Proteus morganii (Proteus morganii) | MIC Salmonella typhi-murium SL 858 (Salmonella typhi-murium) | MIC Proteus vulgaris (Proteus vulgaris)
1.57 µg/mL: MIC Staphylococcus aureus F-2 (Staphylococcus aureus) | MIC Staphylococcus aureus F-3 (Staphylococcus aureus) | MIC Klebsiella pneumoniae GN 917 (Klebsiella pneumoniae [2]) | MIC Escherichia coli GN 3452 (Escherichia coli) | MIC Escherichia coli GN 3481 (Escherichia coli) | MIC Escherichia coli K-1 (Escherichia coli) | MIC Escherichia coli K-2 (Escherichia coli) | MIC Shigella flexneri JS 11839 (Shigella flexneri)
1%: Relative activity (%), resistant activity against β-lactamase [1]
100 µg/mL: MIC Escherichia coli K-3 (Escherichia coli)
0.79 µg/mL: MIC Shigella sonnei JS 11755 (Shigella sonnei)
50 µg/mL: MIC Pseudomonas aeruginosa GN 376 (Pseudomonas aeruginosa; Table 5-3, clinical isolate) | MIC Pseudomonas aeruginosa GN 383 (Pseudomonas aeruginosa; Table 5-3, clinical isolate) | MIC Pseudomonas neruginosa S-1 (Pseudomonas aeruginosa) | MIC Pseudomonas neruginosa S-2 (Pseudomonas aeruginosa) | MIC Pseudomonas neruginosa S-3 (Pseudomonas aeruginosa) | MIC Pseudomonas neruginosa S-4 (Pseudomonas aeruginosa) | MIC Salmonella typhi-murium SL 2136 (Salmonella typhi-murium)
3.13 µg/mL: MIC Staphylococcus aureus MS 8588 (Staphylococcus aureus) | MIC Staphylococcus aureus MS 8596 (Staphylococcus aureus) | MIC Staphylococcus aureus MS 8684 (Staphylococcus aureus) | MIC Klebsiella pneumoniae GN 3850 (Klebsiella pneumoniae [2])
< 1.57 µg/mL: MIC Klebsiella pneumoniae (Klebsiella pneumoniae [3]) | MIC Proteus vulgaris 3027 (Proteus vulgaris 3027) | MIC Esche--richin coil NIHJ (Escherichia coli NIHJ) | MIC Staphylococcus aureus 209p [4]
6.25 µg/mL: MIC Staphylococcus aureus F-1 (Staphylococcus aureus) | MIC Staphylococcus aureus MS 8713 (Staphylococcus aureus) | MIC Escherichia coli GN 3465 (Escherichia coli) | MIC Shigella sonnei JS 11232 (Shigella sonnei) | MIC Shigella flexneri JS 11215 (Shigella flexneri) | MIC Pseudomonas aeruginosa I.F.C [5]
> 200 µg/mL: MIC Staphylococcus aureus F-5 (Staphylococcus aureus) | MIC Escherichia coli GN 3611 (Escherichia coli)

CCCCCCCCN1CCN(C(=O)N[C@@H](C(=O)N[C@@H]2C(=O)N3[C@@H]2SC(C)(C)[C@@H]3C(=O)O)c2ccccc2)C(=O)C1 [Compound 16]
< 1.57 µg/mL: MIC Proteus vulgaris 3027 (Proteus vulgaris 3027) | MIC Esche--richin coil NIHJ (Escherichia coli NIHJ) | MIC Staphylococcus aureus 209p [4]
6.25 µg/mL: MIC Staphylococcus aureus F-1 (Staphylococcus aureus) | MIC Staphylococcus aureus F-4 (Staphylococcus aureus) | MIC Pseudomonas aeruginosa GN 82 (Pseudomonas aeruginosa; Table 5-3, clinical isolate) | MIC Shigella sonnei JS 11232 (Shigella sonnei) | MIC Shigella flexneri JS 11215 (Shigella flexneri) | MIC Proteus rettgeri (Proteus rettgeri)
3.13 µg/mL: MIC Staphylococcus aureus MS 8588 (Staphylococcus aureus) | MIC Staphylococcus aureus MS 8596 (Staphylococcus aureus) | MIC Staphylococcus aureus MS 8684 (Staphylococcus aureus) | MIC Staphylococcus aureus MS 8713 (Staphylococcus aureus) | MIC Klebsiella pneumoniae GN 3850 (Klebsiella pneumoniae [2]) | MIC Pseudomonas aeruginosa GN 2987 (Pseudomonas aeruginosa; Table 5-3, clinical isolate) | MIC Escherichia coli GN 3481 (Escherichia coli) | MIC Escherichia coli K-2 (Escherichia coli) | MIC Escherichia coli K-4 (Escherichia coli)
0.79 µg/mL: MIC Shigella flexneri JS 11839 (Shigella flexneri)
1.57 µg/mL: MIC Escherichia coli GN 3435 (Escherichia coli) | MIC Escherichia coli GN 3452 (Escherichia coli) | MIC Escherichia coli K-1 (Escherichia coli) | MIC Shigella sonnei JS 11755 (Shigella sonnei) | MIC Klebsiella pneumoniae (Klebsiella pneumoniae [3])
